From ChEMBL document CHEMBL5532678, “Comprehensive Insights that Targeting PIM for Cancer Therapy: Prospects and Obstacles” (J Med Chem, 2024) come the findings set out here.

This assay concerns the target T1, Receptor-type tyrosine-protein kinase FLT3 (Homo sapiens, UniProt P36888).
T1 sequence (P36888 whole entry): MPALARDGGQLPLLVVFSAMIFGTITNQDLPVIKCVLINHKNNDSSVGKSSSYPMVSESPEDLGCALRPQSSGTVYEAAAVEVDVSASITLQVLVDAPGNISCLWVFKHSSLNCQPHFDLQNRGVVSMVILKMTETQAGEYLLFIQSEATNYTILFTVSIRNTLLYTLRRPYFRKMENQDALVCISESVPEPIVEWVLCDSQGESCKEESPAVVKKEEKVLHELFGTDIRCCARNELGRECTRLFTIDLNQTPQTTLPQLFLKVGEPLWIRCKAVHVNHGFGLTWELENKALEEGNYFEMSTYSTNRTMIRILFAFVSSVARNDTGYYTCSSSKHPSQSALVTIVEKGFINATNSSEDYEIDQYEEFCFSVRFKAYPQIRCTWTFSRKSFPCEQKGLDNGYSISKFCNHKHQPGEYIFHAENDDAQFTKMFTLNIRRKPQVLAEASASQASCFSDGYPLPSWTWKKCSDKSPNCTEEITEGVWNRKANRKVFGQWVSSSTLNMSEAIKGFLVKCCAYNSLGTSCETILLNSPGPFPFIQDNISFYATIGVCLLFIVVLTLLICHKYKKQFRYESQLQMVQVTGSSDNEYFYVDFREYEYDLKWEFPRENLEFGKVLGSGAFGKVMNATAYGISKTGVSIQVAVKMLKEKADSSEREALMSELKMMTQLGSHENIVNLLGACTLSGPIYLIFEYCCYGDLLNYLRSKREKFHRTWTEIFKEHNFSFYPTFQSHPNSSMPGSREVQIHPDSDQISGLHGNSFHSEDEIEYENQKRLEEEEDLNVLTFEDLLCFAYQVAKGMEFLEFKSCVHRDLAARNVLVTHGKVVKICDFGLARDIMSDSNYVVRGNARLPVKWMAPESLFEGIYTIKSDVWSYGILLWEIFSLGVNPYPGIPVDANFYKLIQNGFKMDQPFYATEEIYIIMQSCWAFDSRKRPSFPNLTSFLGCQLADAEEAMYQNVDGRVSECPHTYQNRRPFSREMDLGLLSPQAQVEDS
Description: Inhibition of FLT3 (unknown origin).

SMILES strings stand for the structures.

One may read the IC50 as the point on the concentration scale where inhibition reaches its midpoint. A low value points to inhibition by little substance.

`N[C@H]1CC[C@@H](Nc2cncc(-c3cccc(CC4SC(=O)NC4=O)c3)n2)CC1` (stereo partly specified) returned an IC50 of 0.11 nM.
